Our source for the RP-LC retention time values is the METLIN SMRT retention time set (Domingo-Almenara et al. 2019).

The data set can be described thus: gradient 5% acetonitrile 3 min, to 50% in 2 min, to 85% in 15 min, held 3 min, 100 µL/min. Particulars: column: Zorbax Extend-C18 2.1 x 50 mm; eluents: water / acetonitrile, 0.1% formic acid. The procedure, abridged:
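Using water and acetonitrile that each contained 0.1% formic acid, mixtures of ~100 pure standards were separated at 100 μL/min on a Zorbax Extend-C18 column (2.1 × 50 mm, 1.8 μm). The HPLC fed a quadrupole time-of-flight mass spectrometer working in positive and negative ionization mode, with dead and dwell volumes of 40 μL and 900 μL. Data were acquired over 3 months. Retention time was read from computationally picked adduct peaks after manual inspection of each.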
As for `CCCCC(=O)Nc1ccc2nc(N3CCN(c4cccc(Cl)c4)CC3)cc(C(=O)O)c2c1`, the RP-LC retention time worked out at 758 s.

As for `CCCc1ccc(S(=O)(=O)N2CCN(c3nc4ccncc4n(C)c3=O)CC2)cc1`, the RP-LC retention time amounted to 699 s.

Take `O=C(NC1CCCCCC1)c1nc(N2CCCC2)c2ccccc2n1`: the RP-LC retention time stood at 759 s.

As for `Cc1ccc(-n2ncc3c(=O)n(Cc4nc(-c5ccc(F)c(Br)c5)no4)cnc32)cc1`, the RP-LC retention time was found to be 1220 s.

Regarding `CCC(C)NC(=O)NC1CCN(C2=NS(=O)(=O)C(c3ccc(C)cc3)=C2C)CC1` (stereo not drawn), the RP-LC retention time was 822 s.

As to `Cc1ccc(C(=O)N2CCC(c3nc(-c4ccccc4)no3)C2)s1` (stereo not drawn), the RP-LC retention time stood at 949 s.

For `O=S(=O)(c1ccc(-c2csc(Nc3cccc4ccccc34)n2)cc1)N1CCCCC1`, the RP-LC retention time came to 1280 s.

In turn, `O=C(NC1CCCCCCC1)C1CCN(C(=O)c2ncn3c2COC(c2ccc(Cl)cc2)C3)CC1` (stereo not drawn) registered an RP-LC retention time of 936 s.

`Cc1nc2cc(-c3noc(Cc4ccccc4C)n3)ccc2o1` returned an RP-LC retention time of 1060 s.

Molecule `CCN(CC)CCNC(=O)C1CCCN(c2nc3cccnc3s2)C1` (stereo not drawn) returned an RP-LC retention time of 577 s.

For `O=C(NCc1ccc2c(c1)OCO2)c1cn2c(n1)CCCC2`, the RP-LC retention time amounted to 581 s.

`CCC(CC)C(=O)N(C)CCc1noc(-c2ccc(C(=O)N3CCCC3)cc2)n1` yielded an RP-LC retention time of 796 s.

Molecule `CCNc1cc(C)nc(N2CCN(C(=O)c3ccccc3Cl)CC2)n1` had an RP-LC retention time of 576 s.

`CC1CCN(S(=O)(=O)c2ccc(-c3nnc(C(=O)N4CCN(C)CC4)o3)cc2)CC1`: the RP-LC retention time came to 665 s.

With `CCN(CC)CCOc1ccc(/C(=C(\Cl)c2ccccc2)c2ccccc2)cc1`, the RP-LC retention time turned out to be 996 s.

`CCC(C)(C)C(=O)N1CCCN(C2=NS(=O)(=O)C(c3ccc(C)cc3)=C2C)CC1` had an RP-LC retention time of 915 s.

`CCOC(=O)c1c(NC(=O)CSc2n[nH]c(N)n2)sc(C)c1C` came in with an RP-LC retention time of 696 s.

Consider `CCCc1ccc(OCC(O)CN2CCN(C)CC2)cc1` (stereo not drawn), for which the RP-LC retention time was found to be 551 s.

As for `CCOC(=O)c1ccc(NS(=O)(=O)c2cc(-c3c(CC)noc3NC(C)=O)ccc2C)cc1`, the RP-LC retention time is 822 s.

As to `Cc1csc(-c2cc(S(=O)(=O)N(Cc3cccs3)C3CCCC3)c(C)s2)n1`, the RP-LC retention time turned out to be 1320 s.

As for `CS(=O)(=O)N1CCC(OC2CCN(C(=O)Nc3cccc(C(F)(F)F)c3)CC2)CC1`, the RP-LC retention time stood at 846 s.

`COc1ccc(NC(=O)COc2cc(C)nc(N3CCN(c4ccccc4)CC3)n2)cc1` registered an RP-LC retention time of 781 s.

In turn, `CCC(=O)N(C1CCOCC1)C1CCN(S(=O)(=O)c2cccc(C)c2)CC1` came in with an RP-LC retention time of 836 s.

The molecule `COc1ccc(CCc2nc3nccc(-c4cccnc4)n3n2)cc1OC` came in with an RP-LC retention time of 666 s.

Take `CCOc1ccc(-n2c(N3CCC(C)CC3)nc3cc(C(=O)OC)ccc3c2=O)cc1`: the RP-LC retention time was determined as 1300 s.

The molecule `Cc1cnc(C2CCC2)n1CC1CCN(S(=O)(=O)Cc2cccc(F)c2)C1` (stereo not drawn) gave an RP-LC retention time of 683 s.

On to `COc1ccc(CN(Cc2cc(=O)n3cccc(C)c3n2)CC(C)C)cc1OC`, for which the RP-LC retention time stood at 635 s.

The molecule `CCN1c2cc(Cl)ccc2C(=O)NC12CCN(C(=O)Nc1ccc3c(c1)OCO3)CC2` gave an RP-LC retention time of 826 s.

With `CCOC(=O)CNC(=O)NCC(=O)N1CCc2ccccc21`, the RP-LC retention time is 658 s.

As to `Cc1ccc(-c2cc3c4nnc(SCC(=O)Nc5cccc(Cl)c5C)n4ccn3n2)cc1C`, the RP-LC retention time was 1060 s.

In the case of `O=c1n(Cc2cccc(Cl)c2)nc2c(S(=O)(=O)N3CCCCC3)cccn12`, the RP-LC retention time was determined as 935 s.

`Cc1nnc(-c2ccc3ccn(CC(=O)Nc4ncccc4C)c3c2)o1` registered an RP-LC retention time of 618 s.

Turning to `COc1cccc(-c2cc3n(n2)C(NC2CC2)CNC3=O)c1` (stereo not drawn), the RP-LC retention time was determined as 562 s.

With `Oc1cc2c(c(Cl)c1O)CCNCC2c1ccccc1` (stereo not drawn), the RP-LC retention time was 618 s.

For `COC(=O)c1ccc(Cn2nc(C3CC3)c3cnn(-c4cccc(Cl)c4)c3c2=O)cc1`, the RP-LC retention time came out at 1170 s.

In turn, `CCOCCCNS(=O)(=O)c1cccc(-c2nc(-c3ccc(C)cc3)no2)c1` showed an RP-LC retention time of 1160 s.

The molecule `O=c1n(Cc2cccc(C(F)(F)F)c2)nc2c(S(=O)(=O)N3CCCCC3)cccn12` showed an RP-LC retention time of 993 s.

The molecule `CCCN1C(=O)COc2ccc(-c3noc(Cc4c[nH]c5ccccc45)n3)cc21` yielded an RP-LC retention time of 1040 s.

`CCN(CC)S(=O)(=O)c1ccc(-n2cnc(C(=O)Nc3cc(C(C)(C)C)ccc3O)c2)cc1` showed an RP-LC retention time of 1060 s.

`CCCN(C)c1nccnc1OC1CCN(C(=O)C(CC)CC)C1` (stereo not drawn): the RP-LC retention time was found to be 842 s.

`Cc1c(Cl)cccc1N1C(=O)CN(S(C)(=O)=O)CC1(C)C(=O)NCc1ccccc1` (stereo not drawn) displayed an RP-LC retention time of 850 s.

As to `CCOC(=O)c1c(-c2ccc(OC)c(OC)c2)csc1NC(=O)CN1CCCC1`, the RP-LC retention time turned out to be 566 s.

Regarding `COC(=O)c1ccc(NC(=O)N2CCCC2c2cc(C)on2)cc1` (stereo not drawn), the RP-LC retention time amounted to 739 s.

`Cc1cc(N2CCN(C(=O)C(C)Oc3cccc(Cl)c3)CC2)nc2nncn12` (stereo not drawn) yielded an RP-LC retention time of 644 s.

As to `O=C1c2ccccc2C(=O)c2c(NCCc3ccc(O)cc3)ccc(NCCc3ccc(O)cc3)c21`, the RP-LC retention time came out at 1180 s.

`Cc1cc(S(=O)(=O)[C@H]2CS(=O)(=O)C[C@@H]2N2CCN(c3ccccc3)CC2)ccc1F` registered an RP-LC retention time of 994 s.

`Cc1nnc(-c2ccc3ccn(CC(=O)Nc4nccs4)c3c2)o1` came in with an RP-LC retention time of 707 s.

`CC(/C=C/C(=O)NO)=C\C(C)C(=O)c1ccc(N(C)C)cc1` (stereo not drawn) registered an RP-LC retention time of 723 s.

For `COc1ccc(-c2noc(C3CCCN3C(=O)Nc3cccc(C)c3)n2)cc1` (stereo not drawn), the RP-LC retention time came to 830 s.

Consider `O=C1[C@H]2CN(Cc3ccccc3F)C[C@H]2C(=O)N1CCc1ccccc1`, for which the RP-LC retention time came to 781 s.

Turning to `N#Cc1cccc(CN2C[C@@H]3C(=O)N(CCc4ccccc4)C(=O)[C@@H]3C2)c1`, the RP-LC retention time turned out to be 849 s.

In the case of `NC(=O)c1nc(-c2ccccc2F)n2c1CCCCC2`, the RP-LC retention time is 722 s.

For the molecule `CC(C)N(Cc1ccccc1)C(=O)C1CCCN(c2ncnc3c2nc2n3CCCCC2)C1` (stereo not drawn), the RP-LC retention time was determined as 905 s.

The molecule `O=C1CCCc2cc(S(=O)(=O)N3CCC(C(=O)NC4CCCCCCC4)CC3)ccc2N1` came in with an RP-LC retention time of 814 s.

As for `CC(=O)N1CCc2cc(N3CC(C(=O)N(C)Cc4ccccc4)CC3=O)ccc21` (stereo not drawn), the RP-LC retention time was found to be 697 s.

`CCc1ccccc1N1C(=O)CN(S(=O)(=O)CC)CC1(C)C(=O)NCc1ccc(F)cc1` (stereo not drawn) gave an RP-LC retention time of 892 s.

`Cc1nc(C)c(C(=O)N2CCCCCCN(C)C(=O)[C@@H]3CCC[C@@H]32)s1` registered an RP-LC retention time of 728 s.

For the molecule `Cc1ccccc1CNS(=O)(=O)c1cn(CC(C)C)c2ncccc12`, the RP-LC retention time came to 763 s.

In turn, `COCCN1C(=O)CCc2cc(NS(=O)(=O)c3ccc(F)c(C)c3)ccc21` showed an RP-LC retention time of 800 s.

Turning to `Cc1ccc(C)c(Nc2c(-c3ccc(N(C)C)cc3)nc3ncccn23)c1`, the RP-LC retention time worked out at 996 s.

As for `COc1ccc2c(c1)C1(CCN(C(=O)Cc3ccc(C)cc3)C1)C(=O)N2C` (stereo not drawn), the RP-LC retention time turned out to be 854 s.

With `COC(=O)N1CCN(CCNC(=O)c2cccc3ccccc23)CC1`, the RP-LC retention time was determined as 542 s.

`CC(=O)Nc1ccc(NC(=O)c2nn(-c3ccccc3)c3ccccc3c2=O)cc1` gave an RP-LC retention time of 714 s.

As to `Cc1noc(-c2ccc(OC3CN(C(=O)NCCc4ccccc4)C3)cc2)n1`, the RP-LC retention time was found to be 880 s.

Take `Cn1cccc1C(=O)NC1CCCN(c2cc(N3CCCC3)ncn2)C1` (stereo not drawn): the RP-LC retention time was 639 s.

As to `O=C(Nc1ccccc1Br)N1CCc2nc(-c3ccccc3)ncc2C1`, the RP-LC retention time worked out at 964 s.

Consider `COc1ccc(C)cc1NC(=O)Nc1c(-c2ccc(C)cc2)nc2ccccn12`, for which the RP-LC retention time was found to be 722 s.

`Cc1cc(NC(=O)C2CCN(C(=O)c3cc(-c4ccc5c(c4)OCO5)n[nH]3)CC2)no1`: the RP-LC retention time was 671 s.

Take `CCOC(=O)c1ccc(NC(=O)Cn2c(=O)n(-c3ccccc3)c(=O)c3c2cc(C)n3C)cc1`: the RP-LC retention time came to 854 s.

In the case of `CCOc1ccc2c(n1)CCN(C(=O)NCC(C)C)C2`, the RP-LC retention time worked out at 740 s.

With `c1ccc(-c2nnc(-c3cccnc3NCc3ccc4c(c3)OCO4)o2)cc1`, the RP-LC retention time was found to be 1160 s.

`Cc1ccc(-c2noc(C3CCCN3S(=O)(=O)c3ccc(C)c(Cl)c3)n2)cc1` (stereo not drawn) yielded an RP-LC retention time of 1290 s.

In the case of `O=C(O)c1cccn2c(=O)c3ccc(F)cc3nc12`, the RP-LC retention time turned out to be 687 s.

For the molecule `O=C(NCCC1CCN(C(=O)Nc2ccc(F)cc2)CC1)c1ccco1`, the RP-LC retention time turned out to be 718 s.

The molecule `CCOc1ccccc1N1CCN(c2cc(C(=O)O)c3cc(NC(=O)C(C)C)ccc3n2)CC1` gave an RP-LC retention time of 684 s.

Turning to `Cc1cccc(-c2noc(C3CCCN3S(=O)(=O)c3ccc4c(c3)CCC4)n2)c1` (stereo not drawn), the RP-LC retention time is 1270 s.

In turn, `O=C(c1cc(N2C(=O)CCS2(=O)=O)ccc1Cl)N1CCN(c2ccccn2)CC1` yielded an RP-LC retention time of 566 s.

`Cc1ccc(OCc2ccc(-c3nc(C#N)c(NCCCN(C)C)o3)o2)cc1`: the RP-LC retention time came out at 717 s.
